In patent publication US9181286B2, “Pantothenate derivatives for the treatment of neurologic disorders” (Retrophin, Inc., priority 2012, dated 2015):

Experiments:
[1] = system: HEK 293T cells; experiment: Acetyl-CoA level in HEK 293T cells by mass spectrometry; assay type: cell-based, human; conditions: 200 μM compound, p<0.0005
Protocol: FIG. 1 is a bar graph showing the levels of acetyl CoA in human HEK 293T cells, as measured by mass spectrometry, following treatment with the compounds of Examples 2, 5, 7 and 12.
The compounds of Examples 2, 5, 7 and 12 were tested in immortalized human cells (HEK 293T). The amount of acetyl-CoA (the downstream result of PANK) following administration of the compounds of Examples 2, 5, 7 and 12 were measured by mass spectrometry.
Treatment of HEK 293T cells with 20 μM of the compound of Example 7 afforded a 38% increase in acetyl CoA over baseline (p<0.005).

[2] = system: Escherichia coli K-12 strain SJ16; experiment: SJ16 recovery (in vitro bacterial testing, growth without pantothenate); assay type: cell-based; conditions: test compound 8 μM in growth medium, 37° C., 18 hours, solid medium without calcium pantothenate (non-permissive)
Protocol: Thus, it serves as a useful assay in determining whether a compound can rescue an organism deficient in PANK, the cause of PKAN. Compounds of the present invention were tested for toxicity and for the ability to support growth of Escherichia coli K-12 strains SJ16 (see, e.g., Jackowski et al., J. Bacteriol., 148, 926-932, 1981) and DV70 (see, e.g., Vallari et al., J. Bacteriol., 169, 5795-5800, 1987) under permissive and non-permissive conditions. The test compound in a solvent (dimethylsulfoxide, DMSO) was added to growth medium at a final concentration of 8 μM. Solvent alone (DMSO) was added to the growth medium at a final concentration ≦0.1% as a control.
Strain SJ16 was grown at 37° C. for 18 hours on a solid medium containing agar (1.5%), M9 minimal essential salts (see, Miller, Experiments in Molecular Genetics. Cold Spring Harbor Laboratory, Cold Spring Harbor, N.Y., 1972), glucose (0.4%), methionine (50 μg/ml), and with (permissive) or without (non-permissive) calcium pantothenate (1 μM). Lack of growth with calcium pantothenate supplementation indicated toxicity. Growth without calcium pantothenate supplementation indicated the ability of the bacteria to metabolize the compound to yield pantothenate or β-alanine.

[3] = system: Pank1−/− mice; experiment: Liver Coenzyme A (mBBr-CoA, HPLC) in Pank1−/− mice; assay type: in vivo
Protocol: Compounds of the invention were tested for efficacy in Pank1^−/− mice (strain 129SvJ×C57BL/6J background) which were compared with age-matched Pank1^+/+ (strain 129SvJ×C57BL/6J) littermates, ages 8-12 weeks. Each mouse was identified with a coded ear tag and weighed on the first day of testing. Each compound was administered to 4-5 mice by intraperitoneal injection at a dose of 1.2 μmoles/g body weight in 5 μL dimethylsulfoxide once daily for 5 days, and mice were then fasted overnight, weighed and euthanized. Untreated mice received 5 μL dimethylsulfoxide once daily for 5 days and then were fasted overnight prior to weighing and euthanasia. Livers were excised from each mouse, aliquots were snap-frozen in liquid nitrogen, and stored at −80° C. Within 7 days, liver samples were thawed on ice, weighed and analyzed for coenzyme A content as described below. Efficacy was indicated by a statistically significant increase in the liver Coenzyme A levels in the Pank1^−/− mice as compared to the liver from untreated Pank1^−/− mice and by equivalence in comparison with Coenzyme A levels in untreated Pank1^+/+ mice.
CoA Measurements: Extraction of Fibroblasts and Liver and Derivatization of Coenzyme A Prior to High Pressure Liquid Chromatography (HPLC) […]
Coenzyme A Quantification by HPLC […]

COC(=O)CCNC(=O)[C@H](O)C(C)(C)COP(=O)(N[C@@H](C)C(=O)OC)Oc1ccccc1 (stereo partly drawn) [Example 2, methyl 3-((2R)-2-hydroxy-4-(((((S)-1-methoxy-1-oxopropan-2-yl)amino)(phenoxy)phosphoryl)oxy)-3,3-dimethylbutanamido)propanoate]
increase in acetyl CoA over baseline [1]: 42% | SJ16 Recovery [2]: Yes | levels of CoA in PANK knockout mice (in words) ([3]; PANK knockout mice, liver mBBr CoA, FIG. 2, compared with normal mice): restored levels of CoA to those seen in normal mice | pmol mBBR-CoA/mg Liver, Mean ([3]; pank1 KO mice, intraperitoneal 1.2 μmoles/g body weight once daily for 5 days, fasted overnight, liver, n=5): 563.358 pmol mBBR-CoA/mg Liver
